These are literature values, as cited in US4230714A, “Imidazole therapeutic agents” (Pfizer Inc., priority 1978, dated 1980).

Series [1] relates to human blood platelet aggregation. To be noted: variety of aggregating agents.
Another series concerns aggregation of platelets. To be noted: rat, extra corporeal loop of the abdominal aorta.
For series [2], the system named is platelet clumping and embolization in the lungs. To be noted: rabbit, intravenous arachidonic acid.

Regarding `O=C1C(CC[S+]([O-])c2ccccc2)C(=O)N(c2ccccc2)N1c1ccccc1` (stereo not shown) [sulphinpyrazone], the “inhibitory activity against platelet aggregation in vitro” value in series [1] is “show inhibitory activity in vitro”. Moreover, the “prevention of platelet aggregation in vivo” value in the series with aggregation of platelets is “prevent the aggregation of platelets”.

For the molecule `CC(=O)Oc1ccccc1C(=O)O` [aspirin], the “protection from the lethal effect of arachidonic acid injection” value in series [2] is recorded as “protect the rabbit from the lethal effect of the injection”. Also, the “inhibitory activity against platelet aggregation in vitro” value in series [1] is reported as “show inhibitory activity in vitro”.
